≈ marks a conversion by molar mass, not a printed value.
Legend:
Assay in all cases: In-vitro test, inhibitory concentration by dilution series
Type in all cases: cell-based
Staphylococcus aureus = conditions: IX = Staphylococcus aureus, Laborstämme; step = concentration with no visible growth; read-out: Hemmkonzentration nach Verdünnung (Verdünnungsreihe) (converted)
Excerpt: (§1) Die antibiotische Wirksamkeit erfindungsgemäßer Verbindungen wurde in der üblichen Weise durch Ermittlung der Hemmkonzentrationen nach Verdünnung ermittelt.
(§2) Die erhaltenen Ergebnisse sind in der nachstehenden Tabelle zusammengefaßt.

[1] = tested on: Pseudomonas aeruginosa NCTC 10701; conditions: NCTC10701; IV = Pseudomonas aeruginosa NCTC 10701; step = concentration with no visible growth; read-out: Hemmkonzentration nach Verdünnung (Verdünnungsreihe) (converted)
Excerpt: as §1, §2

[2] = tested on: Salmonella gallinarium ATCC 9184; conditions: ATCC9184; VI = Salmonella gallinarium ATCC 9184; step = concentration with no visible growth; read-out: Hemmkonzentration nach Verdünnung (Verdünnungsreihe) (converted)
Excerpt: as §1, §2

[3] = tested on: Staphylococcus aureus SG 511; conditions: SG511; II = Staphylococcus aureus SG 511; step = concentration with no visible growth; read-out: Hemmkonzentration nach Verdünnung (Verdünnungsreihe) (converted)
Excerpt: as §1, §2

[4] = tested on: Staphylococcus epidermidis; conditions: X = Staphylococcus epidermidis, Laborstämme; step = concentration with no visible growth; read-out: Hemmkonzentration nach Verdünnung (Verdünnungsreihe) (converted)
Excerpt: as §1, §2

Enterobacter cloacae = conditions: XIII = Enterobacter cloacae, Laborstämme; step = concentration with no visible growth; read-out: Hemmkonzentration nach Verdünnung (Verdünnungsreihe) (converted)
Excerpt: as §1, §2

[5] = tested on: Pseudomonas aeruginosa SG 137; conditions: SG137; V = Pseudomonas aeruginosa SG 137; step = concentration with no visible growth; read-out: Hemmkonzentration nach Verdünnung (Verdünnungsreihe) (converted)
Excerpt: as §1, §2

Proteus vulgaris OX 19 = conditions: OX19; III = Proteus vulgaris OX 19; step = concentration with no visible growth; read-out: Hemmkonzentration nach Verdünnung (Verdünnungsreihe) (converted)
Excerpt: as §1, §2

Citrobacter freudii = conditions: XIV = Citrobacter freudii, Laborstämme; step = concentration with no visible growth; read-out: Hemmkonzentration nach Verdünnung (Verdünnungsreihe) (converted)
Excerpt: as §1, §2

Bacillus subtilis SG 119 = conditions: SG119; I = Bacillus subtilis SG 119; step = concentration with no visible growth; read-out: Hemmkonzentration nach Verdünnung (Verdünnungsreihe) (converted)
Excerpt: as §1, §2

[6] = tested on: Serratia marcescens SG 621; conditions: SG621; VIII = Serratia marcescens SG 621; step = concentration with no visible growth; read-out: Hemmkonzentration nach Verdünnung (Verdünnungsreihe) (converted)
Excerpt: as §1, §2

[7] = tested on: Klebsiella pneumoniae SG 117; conditions: SG117; VII = Klebsiella pneumoniae SG 117; step = concentration with no visible growth; read-out: Hemmkonzentration nach Verdünnung (Verdünnungsreihe) (converted)
Excerpt: as §1, §2

Enterokokken = conditions: XI = Enterokokken, Laborstämme; step = concentration with no visible growth; read-out: Hemmkonzentration nach Verdünnung (Verdünnungsreihe) (converted)
Excerpt: as §1, §2

Escherichia coli = conditions: XII = Escherichia coli, Laborstämme; step = concentration with no visible growth; read-out: Hemmkonzentration nach Verdünnung (Verdünnungsreihe) (converted)
Excerpt: as §1, §2

| SMILES | MIC (Staphylococcus aureus) | MIC [1] | MIC [2] | MIC [3] | MIC [4] | MIC (Enterobacter cloacae) | MIC [5] | MIC (Proteus vulgaris OX 19) | MIC (Citrobacter freudii) | MIC (Bacillus subtilis SG 119) | MIC [6] | MIC [7] | MIC (Enterokokken) | MIC (Escherichia coli) |
| --- | --- | --- | --- | --- | --- | --- | --- | --- | --- | --- | --- | --- | --- | --- |
| CC(C)COC(=O)Oc1c(C(=O)N[C@@H](C(=O)N[C@@H]2C(=O)N3[C@@H]2SC(C)(C)[C@@H]3C(=O)O)c2ccccc2)cnc2ccc(C(C)C)cc12 [Beisp. 11, 6-[D-(-)-α-([4'-Isobutoxycarbonyloxy-6'-isopropyl-chinolinoyl-3']-carboxamido)-α-phenylacetamido]-penicillansäure-Natriumsalz] | 25 µM (≈ 16.6 µg/mL) | 1.56 µM (≈ 1.03 µg/mL) | 3.12 µM (≈ 2.07 µg/mL) | 3.12 µM (≈ 2.07 µg/mL) | 12.5 µM (≈ 8.28 µg/mL) | 12.5 µM (≈ 8.28 µg/mL) | 12.5 µM (≈ 8.28 µg/mL) | 0.78 µM (≈ 0.517 µg/mL) | 12.5 µM (≈ 8.28 µg/mL) | 3.12 µM (≈ 2.07 µg/mL) | 3.12 µM (≈ 2.07 µg/mL) | 3.12 µM (≈ 2.07 µg/mL) | 12.5 µM (≈ 8.28 µg/mL) | 3.12 µM (≈ 2.07 µg/mL) |
| CCc1cc2c(OC(=O)OCC(C)C)c(C(=O)N[C@@H](C(=O)N[C@@H]3C(=O)N4[C@@H]3SC(C)(C)[C@@H]4C(=O)O)c3ccccc3)cnc2cc1COc1ccc(C(C)=O)cc1 [Beisp. 15, 6-[D-(-)-α-([4'-Isobutoxycarbonyloxy-6'-ethyl-7'-(4''-acetyl)-phenoxymethylen-chinolinoyl-3']-carboxamido)-α-phenylacetamido]-penicillansäure-Natriumsalz] | 6.25 µM (≈ 4.98 µg/mL) | 3.12 µM (≈ 2.49 µg/mL) | 1.56 µM (≈ 1.24 µg/mL) | 0.78 µM (≈ 0.622 µg/mL) | 3.12 µM (≈ 2.49 µg/mL) | 3.12 µM (≈ 2.49 µg/mL) | 3.12 µM (≈ 2.49 µg/mL) | 0.39 µM (≈ 0.311 µg/mL) | 3.12 µM (≈ 2.49 µg/mL) | 3.12 µM (≈ 2.49 µg/mL) | 0.78 µM (≈ 0.622 µg/mL) | 0.78 µM (≈ 0.622 µg/mL) | 6.25 µM (≈ 4.98 µg/mL) | 1.56 µM (≈ 1.24 µg/mL) |
| CCCCOCc1cc2ncc(C(=O)N[C@@H](C(=O)N[C@@H]3C(=O)N4[C@@H]3SC(C)(C)[C@@H]4C(=O)O)c3ccccc3)c(OC(=O)OCC)c2cc1CC [Beisp. 4, 6-[D-(-)-α-([4'-Ethoxycarbonyloxy-6'-ethyl-7'-n-butoxymethylen-chinolinoyl-3']-carboxamido)-α-phenylacetamido]-penicillansäure-Natriumsalz] | 12.5 µM (≈ 8.84 µg/mL) | 1.56 µM (≈ 1.1 µg/mL) | 1.56 µM (≈ 1.1 µg/mL) | 0.78 µM (≈ 0.551 µg/mL) | 3.12 µM (≈ 2.21 µg/mL) | 3.12 µM (≈ 2.21 µg/mL) | 3.12 µM (≈ 2.21 µg/mL) | 0.78 µM (≈ 0.551 µg/mL) | 6.25 µM (≈ 4.42 µg/mL) | 0.39 µM (≈ 0.276 µg/mL) | 1.56 µM (≈ 1.1 µg/mL) | 1.56 µM (≈ 1.1 µg/mL) | 6.25 µM (≈ 4.42 µg/mL) | 1.56 µM (≈ 1.1 µg/mL) |
| CCOCc1cc2ncc(C(=O)N[C@@H](C(=O)N[C@@H]3C(=O)N4[C@@H]3SC(C)(C)[C@@H]4C(=O)O)c3ccccc3)c(OC(=O)OCC)c2cc1CC [Beisp. 6, 6-[D-(-)-α-([4'-Ethoxycarbonyloxy-6'-ethyl-7'-ethoxy-methylen-chinolinoyl-3']-carboxamido)-α-phenylacetamido]-penicillansäure-Natriumsalz] | 12.5 µM (≈ 8.48 µg/mL) | 0.78 µM (≈ 0.529 µg/mL) | 1.56 µM (≈ 1.06 µg/mL) | 1.56 µM (≈ 1.06 µg/mL) | 6.25 µM (≈ 4.24 µg/mL) | 3.12 µM (≈ 2.12 µg/mL) | 6.25 µM (≈ 4.24 µg/mL) | 0.39 µM (≈ 0.265 µg/mL) | 3.12 µM (≈ 2.12 µg/mL) | 1.56 µM (≈ 1.06 µg/mL) | 1.56 µM (≈ 1.06 µg/mL) | 0.78 µM (≈ 0.529 µg/mL) | 12.5 µM (≈ 8.48 µg/mL) | 1.56 µM (≈ 1.06 µg/mL) |
| CCOC(=O)Oc1c(C(=O)N[C@@H](C(=O)N[C@@H]2C(=O)N3[C@@H]2SC(C)(C)[C@@H]3C(=O)O)c2ccccc2)cnc2cc(COc3ccc(C)cc3)c(CC)cc12 [Beisp. 3, 6-[D-(-)-α-([4'-Ethoxycarbonyloxy-6'-ethyl-7'-(4''-methyl)-phenoxymethylen-chinolinoyl-3']-carboxamido)-α-phenylacetamido]-penicillansäure-Natriumsalz] | 50 µM (≈ 37 µg/mL) | 3.12 µM (≈ 2.31 µg/mL) | 3.12 µM (≈ 2.31 µg/mL) | 0.78 µM (≈ 0.578 µg/mL) | 12.5 µM (≈ 9.26 µg/mL) | 6.25 µM (≈ 4.63 µg/mL) | 12.5 µM (≈ 9.26 µg/mL) | 0.39 µM (≈ 0.289 µg/mL) | 6.25 µM (≈ 4.63 µg/mL) | 1.56 µM (≈ 1.16 µg/mL) | 0.78 µM (≈ 0.578 µg/mL) | 0.78 µM (≈ 0.578 µg/mL) | 25 µM (≈ 18.5 µg/mL) | 1.56 µM (≈ 1.16 µg/mL) |
| CCc1cc2c(OC(=O)OCC(C)C)c(C(=O)N[C@@H](C(=O)N[C@@H]3C(=O)N4[C@@H]3SC(C)(C)[C@@H]4C(=O)O)c3ccccc3)cnc2cc1COc1ccc(Cl)c(C)c1 [Beisp. 17, 6-[D-(-)-α-([4'-Isobutoxycarbonyloxy-6'-ethyl-7'-(3''-methyl-4''-chlor)-phenoxymethylen-chinolinoyl-3']-carboxamido)-α-phenylacetamido]-penicillansäure-Natriumsalz] | 25 µM (≈ 20.1 µg/mL) | 6.25 µM (≈ 5.02 µg/mL) | 3.12 µM (≈ 2.51 µg/mL) | 1.56 µM (≈ 1.25 µg/mL) | 6.25 µM (≈ 5.02 µg/mL) | 6.25 µM (≈ 5.02 µg/mL) | 6.25 µM (≈ 5.02 µg/mL) | 0.78 µM (≈ 0.627 µg/mL) | 6.25 µM (≈ 5.02 µg/mL) | 1.56 µM (≈ 1.25 µg/mL) | 1.56 µM (≈ 1.25 µg/mL) | 0.39 µM (≈ 0.313 µg/mL) | 25 µM (≈ 20.1 µg/mL) | 1.56 µM (≈ 1.25 µg/mL) |
| COc1cc2ncc(C(=O)N[C@@H](C(=O)N[C@@H]3C(=O)N4[C@@H]3SC(C)(C)[C@@H]4C(=O)O)c3ccccc3)c(OC(=O)OCC(C)C)c2cc1OC [Beisp. 20, 6-[D-(-)-α-([4'-Isobutoxycarbonyloxy-6',7'-dimethoxychinolinoyl-3']-carboxamido)-α-phenylacetamido]-penicillansäure-Natriumsalz] | 25 µM (≈ 17 µg/mL) | 0.39 µM (≈ 0.265 µg/mL) | 3.12 µM (≈ 2.12 µg/mL) | 1.56 µM (≈ 1.06 µg/mL) | 6.25 µM (≈ 4.25 µg/mL) | 12.5 µM (≈ 8.51 µg/mL) | 12.5 µM (≈ 8.51 µg/mL) | 0.39 µM (≈ 0.265 µg/mL) | 12.5 µM (≈ 8.51 µg/mL) | 1.56 µM (≈ 1.06 µg/mL) | 6.25 µM (≈ 4.25 µg/mL) | 1.56 µM (≈ 1.06 µg/mL) | 12.5 µM (≈ 8.51 µg/mL) | 3.12 µM (≈ 2.12 µg/mL) |
| CCc1cc2c(OC(=O)OCC(C)C)c(C(=O)N[C@@H](C(=O)N[C@@H]3C(=O)N4[C@@H]3SC(C)(C)[C@@H]4C(=O)O)c3ccccc3)cnc2cc1CN1CCOCC1 [Beisp. 14, 6-[D-(-)-α-([4'-Isobutoxycarbonyloxy-6'-ethyl-7'-morpholinomethylen-chinolinoyl-3']-carboxamido)-α-phenylacetamido]-penicillansäure-Natriumsalz] | 3.12 µM (≈ 2.33 µg/mL) | 0.78 µM (≈ 0.583 µg/mL) | 1.56 µM (≈ 1.17 µg/mL) | 0.78 µM (≈ 0.583 µg/mL) | 3.12 µM (≈ 2.33 µg/mL) | 3.12 µM (≈ 2.33 µg/mL) | 6.25 µM (≈ 4.67 µg/mL) | 0.2 µM (≈ 0.15 µg/mL) | 3.12 µM (≈ 2.33 µg/mL) | 6.25 µM (≈ 4.67 µg/mL) | 0.78 µM (≈ 0.583 µg/mL) | 0.78 µM (≈ 0.583 µg/mL) | 6.25 µM (≈ 4.67 µg/mL) | 0.78 µM (≈ 0.583 µg/mL) |
